Reference: patent EP0184822A2, “Novel anilide derivatives of substituted arylacetic acids” (SUMITOMO PHARMACEUTICALS COMPANY, LIMITED, priority 1984, dated 1986)

What follows are compounds tested on ddy-mice (assay: Antihypoxic activity (survival time of mice under reduced pressure, 190 mmHg)). Details: Mus musculus, ip, injected intraperitoneally usually 30 minutes before the test, desiccator at 190 mmHg, effective = mean survival time above 140 sec and p<0.05 vs control.
Format: in vivo
Protocol: Six ddy-mice weighing 20 - 27 g were used. Test compound was dissolved in saline or suspended in 0.5 % carboxymethylcellulose and injected intraperitoneally usually 30 minutes before the test at a dosage of 0.1 ml per 10 g of the bodyweight. Two mice were placed in a desiccator, the inside pressure of which was lowered to 190 mmHg within 2 to 3 seconds, and the survival time as well as the time interval between the start of the evacuation and the cessation of respiration was determined. The survival time of the mice which lived longer than 300 seconds was taken as 300 sec.

Row | Structure (SMILES) | minimal effective dose [mg/kg]
1 | O=C(Nc1cccc(O)c1)C(CCCc1ccccc1)c1ccccc1 (stereo not shown) [Example 23] | < 10
2 | NS(=O)(=O)c1ccc(NC(=O)C(CCc2ccccc2)c2ccc(Cl)cc2)cc1 (stereo not shown) [Example 38] | < 10
3 | CCC(C(=O)Nc1ccc(O)cc1)c1ccccc1 (stereo not shown) [Known product (see page 2), reference compound] | > 30
4 | COc1ccc(Cc2nccc3cc(OC)c(OC)cc23)cc1OC [Papaverine, reference compound] | < 30
5 | NC(=O)c1cccc(NC(=O)C(CCCc2ccccc2)c2ccccc2)c1 (stereo not shown) [Example 18] | < 10
6 | CC[C@]12CCCN3CCc4c(n(c5ccccc45)[C@@](O)(C(=O)OC)C1)[C@@H]32 [Vincamine, reference compound] | < 30
7 | O=C(Nc1cccc(O)c1)C(Cc1ccccc1)c1ccccc1 (stereo not shown) [Example 7] | < 10
8 | Cc1ccc(C(CCc2ccccc2)C(=O)Nc2ccc(S(N)(=O)=O)cc2)cc1 (stereo not shown) [Example 40] | < 10
9 | CN(C)CCCOC1(Cc2ccccc2)CCCCCC1 [Bencyclane, reference compound] | < 30
10 | NC(=O)c1cccc(NC(=O)C(Cc2ccccc2)c2ccccc2)c1 (stereo not drawn) [Example 1, alpha-benzyl-N-(3-carbamoylphenyl)benzeneacetamide] | < 10
